Experimental data published in patent US8318935B2, “Organic compounds 75074” (Novartis AG, priority 2007, dated 2012).
Counter-ions that a name gives are not always drawn.

The molecules below were run against T1, epithelial sodium channel (ENaC) (Homo sapiens, UniProt P37088+P51168+P51170) (assay: Short circuit current (ISC) measurements in human bronchial epithelial cells: inhibition of the amiloride-sensitive ISC (ENaC blockade)). Conditions: Human Bronchial Epithelial cells (HBECs) at air-liquid interface, Ussing chamber, compound added to apical chamber.
T1 construct: host or cells: primary Human Bronchial Epithelial cells (HBECs), air-liquid interface culture
T1 sequence (P37088 1-669): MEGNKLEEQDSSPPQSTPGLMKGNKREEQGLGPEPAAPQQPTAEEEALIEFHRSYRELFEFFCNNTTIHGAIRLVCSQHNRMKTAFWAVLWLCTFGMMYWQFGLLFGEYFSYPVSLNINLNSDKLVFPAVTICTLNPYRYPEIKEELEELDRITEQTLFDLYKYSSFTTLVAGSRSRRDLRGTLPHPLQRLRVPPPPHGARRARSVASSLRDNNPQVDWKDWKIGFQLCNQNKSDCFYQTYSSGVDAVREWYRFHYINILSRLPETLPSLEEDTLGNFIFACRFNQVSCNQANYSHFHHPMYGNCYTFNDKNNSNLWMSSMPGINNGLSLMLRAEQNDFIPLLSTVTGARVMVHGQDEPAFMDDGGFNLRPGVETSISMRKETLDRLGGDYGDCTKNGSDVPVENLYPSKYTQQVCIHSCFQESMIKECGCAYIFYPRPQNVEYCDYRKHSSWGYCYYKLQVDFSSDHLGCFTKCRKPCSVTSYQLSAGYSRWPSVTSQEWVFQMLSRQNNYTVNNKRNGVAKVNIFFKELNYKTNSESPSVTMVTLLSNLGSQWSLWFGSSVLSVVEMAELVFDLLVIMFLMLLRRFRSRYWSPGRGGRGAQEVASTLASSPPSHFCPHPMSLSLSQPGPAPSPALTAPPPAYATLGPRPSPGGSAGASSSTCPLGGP
T1 sequence (P51168 1-640): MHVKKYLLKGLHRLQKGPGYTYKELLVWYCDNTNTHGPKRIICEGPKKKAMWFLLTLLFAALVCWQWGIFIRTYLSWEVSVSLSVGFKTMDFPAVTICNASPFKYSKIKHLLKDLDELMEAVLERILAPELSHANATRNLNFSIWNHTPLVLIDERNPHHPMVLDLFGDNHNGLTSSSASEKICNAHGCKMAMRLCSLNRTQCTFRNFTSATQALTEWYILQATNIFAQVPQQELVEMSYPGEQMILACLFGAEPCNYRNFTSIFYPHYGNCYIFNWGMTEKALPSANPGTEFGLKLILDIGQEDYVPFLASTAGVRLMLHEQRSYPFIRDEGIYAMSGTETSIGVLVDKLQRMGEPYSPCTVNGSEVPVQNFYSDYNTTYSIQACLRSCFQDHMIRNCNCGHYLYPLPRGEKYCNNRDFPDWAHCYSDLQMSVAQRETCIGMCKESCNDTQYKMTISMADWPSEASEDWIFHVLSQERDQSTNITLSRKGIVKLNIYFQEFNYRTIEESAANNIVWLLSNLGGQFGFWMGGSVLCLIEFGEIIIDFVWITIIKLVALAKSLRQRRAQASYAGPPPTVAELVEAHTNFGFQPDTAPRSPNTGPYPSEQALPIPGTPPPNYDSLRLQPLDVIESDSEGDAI
T1 sequence (P51170 1-649): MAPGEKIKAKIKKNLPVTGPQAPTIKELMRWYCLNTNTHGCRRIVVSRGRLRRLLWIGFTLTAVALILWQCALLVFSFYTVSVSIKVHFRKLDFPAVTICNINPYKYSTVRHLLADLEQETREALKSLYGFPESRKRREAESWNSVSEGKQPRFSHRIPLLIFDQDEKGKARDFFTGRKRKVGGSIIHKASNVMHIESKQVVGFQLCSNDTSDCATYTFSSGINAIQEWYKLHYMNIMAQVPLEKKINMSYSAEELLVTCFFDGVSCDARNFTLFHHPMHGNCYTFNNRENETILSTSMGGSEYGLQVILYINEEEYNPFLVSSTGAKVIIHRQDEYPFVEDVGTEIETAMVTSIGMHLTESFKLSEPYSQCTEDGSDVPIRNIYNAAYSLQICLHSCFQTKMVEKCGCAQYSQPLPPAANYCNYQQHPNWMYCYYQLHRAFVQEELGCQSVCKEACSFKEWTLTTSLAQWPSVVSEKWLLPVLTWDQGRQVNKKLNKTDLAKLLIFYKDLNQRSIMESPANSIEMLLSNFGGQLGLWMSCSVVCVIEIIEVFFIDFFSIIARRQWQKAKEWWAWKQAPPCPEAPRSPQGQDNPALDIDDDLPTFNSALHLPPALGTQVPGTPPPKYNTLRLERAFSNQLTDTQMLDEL
Assay type: cell-based
Description: Human Bronchial Epithelial cells (HBECs) (Cambrex) were cultured under air-liquid interface conditions to provide a well differentiated mucociliary phenotype.
HBECs were cultured using a modification of the method described by Gray and colleagues (Gray et al., 1996). Cells were seeded in plastic T-162 flasks and were grown in bronchial epithelial cell growth medium (BEGM; Cambrex) supplemented with bovine pituitary extract (52 μg/ml), hydrocortisone (0.5 μg/ml), human recombinant epidermal growth factor (0.5 ng/ml), epinephrine (0.5 μg/ml), transferrin (10 μg/ml), insulin (5 μg/ml), retinoic acid (0.1 μg/ml), triiodothyronine ([…]), gentamycin (50 μg/ml) and amphotericin B (50 ng/ml). Medium was changed every 48 hours until cells were 90% confluent. Cells were then passaged and seeded (8.25×10^4 cells/insert) on polycarbonate Snapwell inserts (Costar) in differentiation media containing 50% DMEM in BEGM with the same supplements as above but without triiodothyronine and a final retinoic acid concentration of 50 nM (all-trans retinoic acid). Cells were maintained submerged for the first 7 days in culture, after which time they were exposed to an apical air interface for the remainder of the culture period. At this time, media was changed to DMEM:F12 media containing 2% v/v Ultroser G for the remainder of culture. Amphotericin B was removed from all media 3 feeds prior to use in the Ussing Chambers. Cells were used between days 7 and 21 after establishment of the apical-air interface. At all stages of culture, cells were maintained at 37° C. in 5% CO2 in an air incubator.
Short Circuit Current (ISC) Measurements
Snapwell inserts were mounted in Vertical Diffusion Chambers (Costar) and were bathed with continuously gassed Ringer solution (5% CO2 in O2; pH 7.4) maintained at 37° C. containing (in mM): 120 NaCl, 25 NaHCO3, 3.3 KH2PO4, 0.8 K2HPO4, 1.2 CaCl2, 1.2 MgCl2, and 10 glucose. The solution osmolarity was between 280 and 300 mOsmol/kg H2O for all physiological salt solutions used. Cells were voltage clamped to 0 mV (model EVC4000; WPI). RT was measured by applying a 1- or 2-mV pulse at 30-s intervals and calculating RT by Ohm's law. Data were recorded using a PowerLab workstation (ADInstruments).
Test compounds were prepared as a 10 mM stock solution in DMSO (95%). Serial 3-fold dilutions were freshly prepared in an appropriate vehicle (distilled H2O or Ringers solution). The initial concentration was added to the apical chamber as a 1000× concentrate in 5 μl, resulting in a final 1× concentration the 5 ml volume of the Ussing chamber. Subsequent additions of compound were added in a 3.3 μl volume of the 1000× serially diluted stock solution. At the completion of the concentration-response experiment, amiloride (10 μM) was added into the apical chamber to enable the total amiloride-sensitive current to be measured. An amiloride control IC50 was established at the start of each experiment.
Results are expressed as the mean % inhibition of the amiloride-sensitive ISC. Concentration-response curves were plotted and IC50 values generated using GraphPad Prism 3.02. Cell inserts were typically run in duplicate and the IC50 calculated on the mean % inhibition data.

| Compound | IC50 |
| --- | --- |
| N=C(NC(=O)c1nc(Cl)c(N)nc1N)NC1CCN(C(=O)c2ccc(C(=O)N3CCC(NC(=N)NC(=O)c4nc(Cl)c(N)nc4N)CC3)cc2)CC1 [Example 4, N,N′-(1,1′-(1,4-phenylene)bis(oxomethylene)bis(piperidine-4,1-diyl))bis(azanediyl)bis(iminomethylene)bis(3,5-diamino-6-chloropyrazine-2-carboxamide)hydrochloride] | 10 nM |
| N/C(=N\C(=O)c1nc(Cl)c(N)nc1N)NC1CCN(C(=O)NCCCCNC(=O)N2CCC(N/C(N)=N/C(=O)c3nc(Cl)c(N)nc3N)CC2)CC1 [Example 23, N,N′-(1,1′-(Butane-1,4-diylbis(azanediyl))bis(oxomethylene)bis(piperidine-4,1-diyl))bis(azanediyl)bis(aminomethan-1-yl-1-ylidene)bis(3,5-diamino-6-chloropyrazine-2-carboxamide) hydrobromide] | 1.6 nM |
| N=C(NC(=O)c1nc(Cl)c(N)nc1N)NC1CCN(C(=O)Nc2ccc(NC(=O)N3CCC(NC(=N)NC(=O)c4nc(Cl)c(N)nc4N)CC3)cc2)CC1 [Example 2, N,N′-(1,1′-(1,4-phenylenebis(azanediyl))bis(oxomethylene)bis(piperidine-4,1-diyl))bis(azanediyl)bis(iminomethylene)bis(3,5-diamino-6-chloropyrazine-2-carboxamide)hydrobromide] | 1.5 nM |

Results, then the molecule that gave them:

| IC50 | Compound |
| --- | --- |
| 1 nM | CCCCN(CCCC)CCCNc1nc(N2CCC(NC(=N)NC(=O)c3nc(Cl)c(N)nc3N)CC2)nc(N2CCC(NC(=N)NC(=O)c3nc(Cl)c(N)nc3N)CC2)n1 [Example 13, N,N′-(1,1′-(6-(3-(dibutylamino)propylamino)-1,3,5-triazine-2,4-diyl)bis(piperidine-4,1-diyl))bis(azanediyl)bis(iminomethylene)bis(3,5-diamino-6-chloropyrazine-2-carboxamide) trifluoroacetate] |
| 6 nM | N=C(NC(=O)c1nc(Cl)c(N)nc1N)NC1CCN(c2ncnc(N3CCC(NC(=N)NC(=O)c4nc(Cl)c(N)nc4N)CC3)n2)CC1 [Example 7, N,N′-(1,1′-(1,3,5-triazine-2,4-diyl)bis(piperidine-4,1-diyl))bis(azanediyl)bis(iminomethylene)bis(3,5-diamino-6-chloropyrazine-2-carboxamide)hydrochloride] |
